Measured values taken from US5650415A, “Quinoline compounds” (Sugen, Inc., priority 1995, dated 1997).

system: HER2; experiment: HER2 whole cell kinase ELISA (first HER2 column of Table 1); type: cell-based; conditions: cell line not given
Text: The following examples illustrates the ability of the exemplary compounds to inhibit receptor tyrosine kinases, such as HER2 and/or EGFR. The following target cells were used for cellular kinase assays: NIH3T3 clone C7 (Honegger et al., supra) engineered to over-express human EGF receptor; NIH3T3 cells engineered to over-express a chimeric receptor containing the EGFR extracellular domain and the HER2 intracellular kinase domain; the human mammary carcinoma line BT474 (ATCC HTB2) expressing HER2; and the human glioblastoma line U1242 that expresses PDGFR-beta. Growth assays were carried out using human mammary epithelial SKBR3 (ATCC HTB30) cells (SKBR3 cells over-express HER2), SKOV3 (AT(D(D HTB77) human ovarian cancer cell line (SKOV3 cells also over-express HER2), A431 cells (A431 cells over-express EGFR) MCF7 human breast carcinoma cells, MCF7 cells overexpressing the HER2 kinase (MCF7-HER2), NIH3T3 cells, and NIH3T3 cells overexpressing the HER2 kinase (3T3-HER2.
EGFR-HER2 Chimeric Recetor
HER2 kinase activity (EGFR-3T3) in whole cells was measured as described below:
The materials and regeants are identical to these used in example 1, the EGFR whole cell kinase assay.
A. Coat ELISA plates (Corning, 96 well, Cat. #25805-96) with 05-101 antibody at 0.5 µg per well in PBS, 100 μl final volume/well, and store overnight at 4.sunburst. C. Coated plates are good for up to 10 days when stored at 4° C.
B. On day of use, remove coating buffer and replace with 100 μl blocking buffer (5% Carnation Instant Non-Fat Dry Milk in PBS). Incubate the plate, shaking, at room temperature (about 23.sunburst. C. to 25.sunburst. C.) for 30 minutes. Just prior to use, remove blocking buffer and wash plate 4 times with TBST buffer.
A. An NIH3T3 cell line overexpressing a chimeric receptor containing the EGFR extracellular domain and extracellular HER2 kinase domain can be used for this assay.
B. Choose dishes having 80-90% confluence for the experiment. Trypsinize cells and stop reaction by adding 10% fetal bovine serum. Suspend cells in DMEM medium (10% CS DMEM medium) and centrifuge once at 1500 rpm, at room temperature for 5 minutes.
C. Resuspend cells in seeding medium (DMEM, 0.5% bovine serum), and count the cells using trypan blue. Viability above 90% is acceptable. Seed cells in DMEM medium (0.5% bovine serum) at a density of 10,000 cells per well, 100 μl per well, in a 96 well microtiter plate. Incubate seeded cells in 5% CO2 at 37.sunburst. C. for about 40 hours.
A. Check seeded cells for contamination using an inverted microscope. Dilute drug stock (10 mg/ml in DMSO) 1:10 in DMEM medium, then transfer 5 l to a […] well for a final drug dilution of 1:200 and a final DMSO concentration of 1%. Control wells receive DMSO alone. Incubate in 5% CO2 at 37° C. for two hours.
B. Prepare EGF ligand: dilute stock EGF in DMEM so that upon transfer of 10 μl dilute EGF (1:12 dilution), 100 nM final concentration is attained.
D. After 120 minutes incubation with drug, add prepared […] ligand to cells, 10 μl per well, to a final concentration of 100 nM. Control wells receive DMEM alone. Incubate, shaking, at room temperature, for 5 minutes.
E. Remove drug, EGF, and DMEM. Wash cells twice with PBS. Transfer HNTG* to cells, 100 μl per well. Place on ice for 5 minutes. Meanwhile, remove blocking buffer from other ELISA plate and wash with TBST as described above.
F. With a pipette tip securely fitted to a micropipettor, scrape cells from plate and homogenize cell material by repeatedly aspirating and dispensing the HNTG* lysis buffer. Transfer lysate to a coated, blocked, and washed ELISA plate. Incubate shaking at room temperature for one hour.
G. Remove lysate and wash 4 times with TBST. Transfer freshly diluted anti-Ptyr antibody to ELISA plate at 100 μl per well. Incubate shaking at room temperature for 30 minutes in the presence of the anti-Ptyr antiserum (1:3000 dilution in TBST).
H. Remove the anti-Ptyr antibody and wash 4 times with TBST. […]

IC50	SMILES
> 100 µM	CCOC(=O)c1cnc2ccc(C(F)(F)F)cc2c1Nc1ccc(C#N)cc1 [Compound A725, 4-(4-Cyanophenylamino)-3-ethoxycarbonyl-6-trifluoromethylquinoline]
> 100 µM	CCOC(=O)c1cnc2ccc(C(F)(F)F)cc2c1Nc1ccccc1C#N [Compound A723, 4-(2-Cyanophenylamino)-3-ethoxycarbonyl-6-trifluoromethylquinoline]
> 100 µM	CCOC(=O)c1cnc2c(F)cc(F)cc2c1Sc1ccc(Cl)cc1 [Compound A730, 4-(4-Chlorophenylmercapto)-6,8-difluoro-3-ethoxycarbonylquinoline]
> 100 µM	CCOC(=O)c1cnc2ccc(C(F)(F)F)cc2c1Nc1ccccc1C(F)(F)F [Compound A720, 3-Ethoxycarbonyl-4-(2-trifluoromethylphenylamino)-6-trifluoromethylquinoline]
> 100 µM	CCOC(=O)c1cnc2ccc(C(F)(F)F)cc2c1NCc1cccc(C(F)(F)F)c1 [Compound A718, 3-Ethoxycarbonyl-4-(3-trifluoromethylbenzylamino)-6-trifluoromethylquinoline]
> 100 µM	CCOC(=O)c1cnc2ccc(C(F)(F)F)cc2c1NCc1ccccc1C(F)(F)F [Compound A717, 3-Ethoxycarbonyl-4-(2-trifluoromethylbenzylamino)-6-trifluoromethylquinoline]
50 µM	CCOC(=O)c1cnc2c(F)ccc(F)c2c1Sc1ccc(Cl)cc1 [Compound A732, 4-(4-Chlorophenylmercapto)-5,8-difluoro-3-ethoxycarbonylquinoline]
> 100 µM	CCOC(=O)c1cnc2ccc(C(F)(F)F)cc2c1Nc1cccc(Cl)c1 [Compound A728, 4-(3-Chlorophenylamino)-3-ethoxycarbonyl-6-trifluoromethylquinoline]
> 100 µM	CCOC(=O)c1cnc2ccc(C(F)(F)F)cc2c1Nc1ccc(Br)cc1 [Compound A727, 4-(4-Bromophenylamino)-3-ethoxycarbonyl-6-trifluoromethylquinoline]
7.9 µM	CCOC(=O)c1cnc2c(F)ccc(F)c2c1Sc1cccc(C(F)(F)F)c1 [Compound A713, 3-Ethoxycarbonyl-5,8-difluoro-4-(3-trifluoromethylphenylmercapto)quinoline]
> 100 µM	CCOC(=O)c1cnc2ccc(C(F)(F)F)cc2c1NCc1ccc(C(F)(F)F)cc1 [Compound A719, 3-Ethoxycarbonyl-4-(4-trifluoromethylbenzylamino)-6-trifluoromethylquinoline]
> 100 µM	CCOC(=O)c1cnc2cc(Cl)c(F)cc2c1Sc1ccc(Cl)cc1 [Compound A731, 7-Chloro-4-(4-chlorophenylmercapto)-6-fluoro-3-ethoxycarbonylquinoline]
> 100 µM	CCOC(=O)c1cnc2ccc(C(F)(F)F)cc2c1Nc1ccc(OC)c(OC)c1 [Compound A726, 3-Ethoxycarbonyl-4-(3,4-dimethoxyphenylamino)-6-trifluoromethylquinoline]
> 100 µM	CCOC(=O)c1cnc2ccc(C(F)(F)F)cc2c1Nc1ccc(Cl)cc1 [Compound A729, 4-(4-Chlorophenylamino)-3-ethoxycarbonyl-6-trifluoromethylquinoline]
